Columns and labels:
[1] = both, human
Procedure: The skin was donated by male and female patients aged 28 to 63 years old undergoing abdominal plastic surgery at the Department for Plastic, Aesthetic, and Reconstructive Surgery of the Medical University Graz. […] The human skin explants were cleaned with gauze swabs and purified water and were subsequently stored frozen at −20° C.
The skin explants were thawed at room temperature for 12 h before the start of the study. They were fixed on a plate of extruded polystyrene wrapped in a medical underpad (MoliNea N, Paul Hartmann AG, Austria) and placed into a climate chamber (32° C./40-60% relative humidity) for 1 h before use. Ambient temperature and ambient relative humidity within the climate chamber were controlled throughout the experiment with a data logger with integrated temperature sensor and relative humidity sensor (175 H1 temperature and humidity data logger, Testo, Germany).
Cannulas (Sterican 20G, B.Braun, Germany) were inserted into the dermis and the subcutis of the skin explant. OFM probes (OFM-P0X-15, JR-HEALTH, Austria) were pushed through the cannulas. Afterwards, the cannulas were removed and the probes were fixed to the skin with cyanoacrylate (Cyanolit 241F, Panacol-Elosol GmbH, Germany). […]

[2] = test system: protein; conditions: cited from earlier work
[3] = Non-specific adsorption of diclofenac on the OFM probes and tubing; conditions: for the duration of the experiment (6 h); data not shown
Procedure: Two test solutions of diclofenac diethyl amine salt (DDEA) and diclofenac sodium salt (DNa) were tested. […] Samples were collected in 1 h intervals. Syringes and Eppendorf® vials were used to deliver test solution to the OFM outlet sections and tubing, respectively. Samples from the syringes and from the Eppendorf® vials were taken at the start (t=0 h) and at the end (t=6 h) of the experiment to determine the concentration entering the OFM probe and tubing. Syringes, dosing needles, Eppendorf® vials, and pipette tips were coated with each test solution prior to use. For coating, the samples were filled with test solutions and maintained at room temperature for 30 min. Afterwards, the coating test solutions were discarded. Pipette tips underwent three cycles of filling and emptying of test solutions. The fourth filling of the pipette tip was used as the sample. Adsorption was assessed by comparing inflow to outflow concentrations. […] LLOQ was 10 ng mL^-1.

## O=C(O)Cc1ccccc1Nc1c(Cl)cccc1Cl [Diclofenac, diclofenac]
[1]
  dilution factor: 13.9 fold
[2]
  protein binding: > 99.8%

## O=C(O)Cc1ccccc1Nc1c(Cl)cccc1Cl [DNa, diclofenac sodium]
[1]; 28 h
  concentration in recirculation probes higher than in control probes by: 9 ng/mL

## O=C(O)Cc1ccccc1Nc1c(Cl)cccc1Cl [DDEA, diclofenac diethylammonium]
[3]
  stability in the stock solution: stable

Reference: patent US20250198992A1, “IN VITRO METHODS” (HALEON CH SARL, priority 2022, published 2025)
